Laboratory results: US20240116985A1, “STAPLED PEPTIDES AND METHODS THEREOF” (priority 2020, published 2024)

Tests used:
[1] = target: T1, full-length beta-Catenin (Uniprot ID P35222) (Homo sapiens, UniProt P35222); test: Fluorescence polarization IC50 (beta-catenin / 5FAM-TCF4 10-53 competition); format: binding; details: fluorescence polarization; read-out: beta-Catenin FP IC50
T1 construct: 10 nM full-length beta-Catenin (Uniprot ID P35222)
T1 sequence (P35222 1-781): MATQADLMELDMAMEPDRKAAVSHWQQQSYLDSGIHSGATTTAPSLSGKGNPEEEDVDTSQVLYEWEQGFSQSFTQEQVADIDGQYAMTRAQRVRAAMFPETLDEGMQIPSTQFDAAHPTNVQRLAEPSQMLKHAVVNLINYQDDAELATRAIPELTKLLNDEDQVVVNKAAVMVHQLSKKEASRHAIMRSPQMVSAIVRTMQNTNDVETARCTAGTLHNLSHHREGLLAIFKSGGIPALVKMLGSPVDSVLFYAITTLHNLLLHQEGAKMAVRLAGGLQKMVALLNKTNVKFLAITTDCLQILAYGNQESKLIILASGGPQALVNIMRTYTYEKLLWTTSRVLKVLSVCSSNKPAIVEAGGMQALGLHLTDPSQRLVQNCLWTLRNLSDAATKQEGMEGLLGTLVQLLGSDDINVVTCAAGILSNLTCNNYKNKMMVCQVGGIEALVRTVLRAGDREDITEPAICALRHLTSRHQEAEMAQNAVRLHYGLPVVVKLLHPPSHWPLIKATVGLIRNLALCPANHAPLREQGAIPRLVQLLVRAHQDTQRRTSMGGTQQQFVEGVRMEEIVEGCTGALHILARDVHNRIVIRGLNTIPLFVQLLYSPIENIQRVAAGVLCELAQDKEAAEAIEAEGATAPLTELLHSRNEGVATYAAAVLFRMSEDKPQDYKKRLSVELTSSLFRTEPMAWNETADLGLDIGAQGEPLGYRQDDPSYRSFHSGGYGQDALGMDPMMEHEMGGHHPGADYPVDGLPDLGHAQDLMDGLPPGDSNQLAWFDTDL

[2] = target: T2, beta-catenin/TCF4 engagement (Homo sapiens, UniProt P35222); test: Nano-BRET target engagement assay (B-cat-Halo & TCF4-Luc in HEK293 cells); format: cell-based; details: absolute IC50; read-out: NanoBRET Abs IC50
T2 construct: expressed in transfected cells; host or cells: HEK293
T2 sequence (P35222 1-781): T1 sequence (P35222 1-781)

IC50 [1]	IC50 [2]	Compound
69 nM	> 20000 nM	CC(=O)N1CCC[C@]12CCCCCCC1(CCCCCCCCOC(=O)N3CC[C@@](C(=O)N[C@@H](Cc4ccsc4)C(=O)N[C@@H](Cc4csc5ccccc45)C(=O)N[C@@H](Cc4ccccc4)C(N)=O)(C3)NC(=O)[C@H]([C@@H](C)O)NC(=O)[C@H](Cc3ccccc3)NC(=O)[C@H](C)NC(=O)[C@H](CCCCNC(C)C)NC(=O)[C@H](CN(CC(=O)O)CC(F)(F)F)NC(=O)[C@H](CC(=O)O)NC1=O)NC(=O)[C@H](CC(C)(C)C)NC(=O)[C@H](CC(=O)O)NC2=O (stereo partly drawn) [I-1768, Ac-PL3-Asp-Npg-B5-Asp-TfeGA-iPrLys-Ala-Phe-Thr-PyrS2-3Thi-BztA-Phe-NH2]
175 nM	> 20000 nM	CC(=O)N1CCC[C@]12CCCCCCC1(CCCCCCCCOC(=O)N3CC[C@@](C(=O)N[C@@H](Cc4ccsc4)C(=O)N[C@@H](Cc4csc5ccccc45)C(=O)N[C@H](C(N)=O)C(C)C)(C3)NC(=O)[C@H]([C@@H](C)O)NC(=O)[C@H](Cc3ccccc3)NC(=O)[C@H](C)NC(=O)[C@H](CCCCNC(C)C)NC(=O)[C@H](CN(CC(=O)O)CC(F)(F)F)NC(=O)[C@H](CC(=O)O)NC1=O)NC(=O)[C@H](CC(C)(C)C)NC(=O)[C@H](CC(=O)O)NC2=O (stereo partly drawn) [I-1770, Ac-PL3-Asp-Npg-B5-Asp-TfeGA-iPrLys-Ala-Phe-Thr-PyrS2-3Thi-BztA-Val-NH2]
14 nM	6800 nM	CC(=O)N1CCC[C@]12CC=CCCCC1(CCCC=CCCCOC(=O)N3CC[C@@](C(=O)N[C@@H](Cc4ccsc4)C(=O)N[C@@H](Cc4csc5ccccc45)C(=O)N[C@@H](CCC(N)=O)C(N)=O)(C3)NC(=O)[C@H](CC(C)C)NC(=O)[C@H](Cc3ccccc3)NC(=O)[C@H](C)NC(=O)[C@H](C)NC(=O)[C@H](CN(CC(=O)O)CC(F)(F)F)NC(=O)[C@H](CC(=O)O)NC1=O)NC(=O)[C@H](CCC(C)(C)C)NC(=O)[C@H](CC(=O)O)NC2=O (stereo partly drawn) [I-1772, Ac-PL3-Asp-Npa-B5-Asp-TfeGA-Ala-Ala-Phe-Leu-PyrS2-3Thi-BztA-Gln-NH2]
32 nM	8600 nM	CC(=O)N1CCC[C@]12CC=CCCCC1(CCCC=CCCCOC(=O)N3CC[C@@](C(=O)N[C@@H](Cc4ccsc4)C(=O)N[C@@H](Cc4csc5ccccc45)C(=O)N[C@@H](CCC(N)=O)C(N)=O)(C3)NC(=O)[C@H](CC(C)(C)C)NC(=O)[C@H](Cc3ccccc3)NC(=O)[C@H](C)NC(=O)[C@H](C)NC(=O)[C@H](CN(CC(=O)O)CC(F)(F)F)NC(=O)[C@H](CC(=O)O)NC1=O)NC(=O)[C@H](CC(C)(C)C)NC(=O)[C@H](CC(=O)O)NC2=O (stereo partly drawn) [I-1773, Ac-PL3-Asp-Npg-B5-Asp-TfeGA-Ala-Ala-Phe-Npg-PyrS2-3Thi-BztA-Gln-NH2]
28 nM	8900 nM	CC(=O)N1CCC[C@]12CC=CCCCC1(CCCC=CCCCOC(=O)N3CC[C@@](C(=O)N[C@@H](Cc4ccsc4)C(=O)N[C@@H](Cc4csc5ccccc45)C(=O)N[C@@H](CCC(N)=O)C(N)=O)(C3)NC(=O)[C@H](CC3CCCCC3)NC(=O)[C@H](Cc3ccccc3)NC(=O)[C@H](C)NC(=O)[C@H](C)NC(=O)[C@H](CN(CC(=O)O)CC(F)(F)F)NC(=O)[C@H](CC(=O)O)NC1=O)NC(=O)[C@H](CC(C)(C)C)NC(=O)[C@H](CC(=O)O)NC2=O (stereo partly drawn) [I-1774, Ac-PL3-Asp-Npg-B5-Asp-TfeGA-Ala-Ala-Phe-Cha-PyrS2-3Thi-BztA-Gln-NH2]
17 nM	10500 nM	CCCC[C@@H]1NC(=O)[C@H](Cc2ccccc2)NC(=O)[C@H](C)NC(=O)[C@H](C)NC(=O)[C@H](CN(CC(=O)O)CC(F)(F)F)NC(=O)[C@H](CC(=O)O)NC(=O)C2(CCCC=CCCCOC(=O)N3CC[C@@](C(=O)N[C@@H](Cc4ccsc4)C(=O)N[C@@H](Cc4csc5ccccc45)C(=O)N[C@@H](CCC(N)=O)C(N)=O)(C3)NC1=O)CCCC=CC[C@]1(CCCN1C(C)=O)C(=O)N[C@@H](CC(=O)O)C(=O)N[C@@H](CC(C)(C)C)C(=O)N2 (stereo partly drawn) [I-1776, Ac-PL3-Asp-Npg-B5-Asp-TfeGA-Ala-Ala-Phe-nLeu-PyrS2-3Thi-BztA-Gln-NH2]
8 nM	8700 nM	CCCC[C@@H]1NC(=O)[C@H](CC(=O)O)NC(=O)[C@]2(CC=CCCCC3(CCCC=CCCCOC(=O)N4CC[C@@](C(=O)N[C@@H](Cc5ccsc5)C(=O)N[C@@H](Cc5csc6ccccc56)C(=O)N[C@@H](CCC(N)=O)C(N)=O)(C4)NC(=O)[C@H](CC(C)C)NC(=O)[C@H](Cc4ccccc4)NC(=O)[C@H](C)NC(=O)[C@H](C)NC(=O)[C@H](CN(CC(=O)O)CC(F)(F)F)NC(=O)[C@H](CC(=O)O)NC3=O)NC1=O)CCCN2C(C)=O (stereo partly drawn) [I-1777, Ac-PL3-Asp-nLeu-B5-Asp-TfeGA-Ala-Ala-Phe-Leu-PyrS2-3Thi-BztA-Gln-NH2]
101 nM	> 20000 nM	CC(=O)N1CCC[C@]12CC=CCCCC1(CCCC=CCCCOC(=O)N3CC[C@@](C(=O)N[C@@H](Cc4ccsc4)C(=O)N[C@@H](Cc4csc5ccccc45)C(=O)N[C@@H](CCC(N)=O)C(N)=O)(C3)NC(=O)[C@H](CCO)NC(=O)[C@H](Cc3ccccc3)NC(=O)[C@H](C)NC(=O)[C@H](C)NC(=O)[C@H](Cc3ccc(O)cc3)NC(=O)[C@H](CC(=O)O)NC1=O)NC(=O)[C@H](CC(C)(C)C)NC(=O)[C@H](CC(=O)O)NC2=O (stereo partly drawn) [I-1783, Ac-PL3-Asp-Npg-B5-Asp-Tyr-Ala-Ala-Phe-Hse-PyrS2-3Thi-BztA-Gln-NH2]
42 nM	> 20000 nM	CC(=O)N1CCC[C@]12CC=CCCCC1(CCCC=CCCCOC(=O)N3CC[C@@](C(=O)N[C@@H](Cc4ccsc4)C(=O)N[C@@H](Cc4csc5ccccc45)C(=O)N[C@@H](CCC(N)=O)C(N)=O)(C3)NC(=O)[C@H](CCO)NC(=O)[C@H](Cc3ccccc3)NC(=O)[C@H](C)NC(=O)[C@H](C)NC(=O)[C@H](CCc3ccc(O)cc3)NC(=O)[C@H](CC(=O)O)NC1=O)NC(=O)[C@H](CC(C)(C)C)NC(=O)[C@H](CC(=O)O)NC2=O (stereo partly drawn) [I-1786, Ac-PL3-Asp-Npg-B5-Asp-hTyr-Ala-Ala-Phe-Hse-PyrS2-3Thi-BztA-Gln-NH2]
58 nM	33900 nM	CC(=O)N1CCC[C@]12CC=CCCCC1(CCCC=CCCCOC(=O)N3CC[C@@](C(=O)N[C@@H](Cc4ccsc4)C(=O)N[C@@H](Cc4csc5ccccc45)C(=O)N[C@@H](CCC(N)=O)C(N)=O)(C3)NC(=O)[C@H](CC(N)=O)NC(=O)[C@H](Cc3ccccc3)NC(=O)[C@H](C)NC(=O)[C@H](C)NC(=O)[C@H](Cc3c[nH]c4ccccc34)NC(=O)[C@H](CC(=O)O)NC1=O)NC(=O)[C@H](CC(C)(C)C)NC(=O)[C@H](CC(=O)O)NC2=O (stereo partly drawn) [I-1788, Ac-PL3-Asp-Npg-B5-Asp-Trp-Ala-Ala-Phe-Asn-PyrS2-3Thi-BztA-Gln-NH2]
82 nM	34400 nM	CC(=O)N1CCC[C@]12CC=CCCCC1(CCCC=CCCCOC(=O)N3CC[C@@](C(=O)N[C@@H](Cc4ccsc4)C(=O)N[C@@H](Cc4csc5ccccc45)C(=O)N[C@@H](CCC(N)=O)C(N)=O)(C3)NC(=O)[C@H](CC(N)=O)NC(=O)[C@H](Cc3ccccc3)NC(=O)[C@H](C)NC(=O)[C@H](C)NC(=O)[C@H](Cc3c(F)c(F)c(F)c(F)c3F)NC(=O)[C@H](CC(=O)O)NC1=O)NC(=O)[C@H](CC(C)(C)C)NC(=O)[C@H](CC(=O)O)NC2=O (stereo partly drawn) [I-1790, Ac-PL3-Asp-Npg-B5-Asp-Pff-Ala-Ala-Phe-Asn-PyrS2-3Thi-BztA-Gln-NH2]
